Laboratory results: patent US10711261B2 (priority 2015, dated 2020)
“Also recorded” adds a separate entry of the source.

Assays:
[1] = molecular target: recombinant human WT SOD1 (Homo sapiens, UniProt P00441); assay type: binding
DJ-1 [2] = molecular target: T1, DJ-1 (Homo sapiens, UniProt Q99497); assay type: binding
DJ-1 [3] = molecular target: T1, DJ-1; assay type: binding; remark: listed apart in the source
WT DJ-1 = WT DJ-1 (Homo sapiens, UniProt Q99497); assay type: binding
[4] = in vivo; cited from earlier work

WT DJ-1, sequence (Q99497 whole entry): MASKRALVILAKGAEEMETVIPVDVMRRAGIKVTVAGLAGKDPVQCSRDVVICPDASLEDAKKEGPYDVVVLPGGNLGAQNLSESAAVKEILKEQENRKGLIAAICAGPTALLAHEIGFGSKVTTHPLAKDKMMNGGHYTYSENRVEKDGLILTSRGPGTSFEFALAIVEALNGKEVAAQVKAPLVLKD
T1 sequence (Q99497 whole entry): as above
recombinant human WT SOD1, sequence (P00441 2-154): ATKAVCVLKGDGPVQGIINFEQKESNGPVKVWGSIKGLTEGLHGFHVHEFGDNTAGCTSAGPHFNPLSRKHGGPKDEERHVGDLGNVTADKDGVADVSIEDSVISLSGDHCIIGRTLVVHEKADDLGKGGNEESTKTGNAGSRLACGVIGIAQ

SMILES | covalent dimerization of SOD1 (change in mass of covalently linked SOD1 dimers) [1] | site of covalent linkage in DJ-1 dimer (DJ-1 [2]) | extent of cross-linking of SOD1 monomers [1] | denaturation temperature of DJ-1 (thermal stability) (DJ-1 [3]) | covalent dimerization of DJ-1 (WT DJ-1) | LD100 [4]
OCC1(CO)CSSC1 [1,2-dithiolane-4,4-dimethanol] | capable of covalently dimerizing SOD1 |  |  |  |  | 
[O-][S+]1CCCCS1 (stereo not drawn) [NSC56224, 1-oxo-1,2-dithiane] | capable of covalently dimerizing SOD1 | covalently linked DJ-1 dimers at Cys53; also recorded: two trypsin digest fragments of DJ-1 containing Cys53 (underlined) linked by NSC56224 | able to cross-link the majority of SOD1 monomers in the sample | increase the measured denaturation temperature of DJ-1 relative to untreated DJ-1 | identified as a covalent dimerizer of DJ-1 | 
NC(=O)NN=C1CSSC1 [NSC72268] |  |  |  | increase the measured denaturation temperature of DJ-1 relative to untreated DJ-1 | identified as a specific DJ-1 covalent dimerizer; also recorded: specific covalent dimerizer of DJ-1 | 
CC(C)C[C@H](NC(=O)[C@H](Cc1ccccc1)NC(=O)c1cnccn1)B(O)O [bortezomib] |  |  |  |  |  | < 0.25 mg/kg
